Source: patent US4474967A, “8-Deutero and 8-tritio-substituted derivatives of D-4S-6-fluoro-spiro-[chroman-4,4'-imidazolidine]-2',5'-dione” (Pfizer Inc., priority 1983, dated 1984)

Tested on: aldose reductase
Assay: Inhibition of aldose reductase enzyme activity (S. Hayman et al., as modified by K. Sestanj et al.)
Type: biochemical
Conditions: partially purified aldose reductase enzyme from calf lens
Procedure: The following asymmetric spiro-hydantoin compounds of Examples 1 and 2, respectively, were tested at a concentration level of 10^-6 M for their ability to reduce or inhibit aldose reductase enzyme activity via the procedure of S. Hayman et al., as described in the Journal of Biological Chemistry, Vol. 240, p. 877(1965) and as modified by K. Sestanj et al. in U.S. Pat. No. 3,821,383. In each case, the substrate employed was partially purified aldose reductase enzyme obtained from calf lens.

Row | % Inhibition at 10^-6 M [%] | Structure (SMILES)
1 | 74 | O=C1NC(=O)[C@@]2(CCOc3c(F)cc(F)cc32)N1 [Product of Example 1, 4S-6,8-difluoro-spiro-[chroman-4,4'-imidazolidine]-2',5'-dione]
2 | 64 | O=C1NC(=O)[C@@]2(CCOc3c(Cl)cc(F)cc32)N1 [Product of Example 2, 4S-6-fluoro-8-chloro-spiro-[chroman-4,4'-imidazolidine]-2',5'-dione]
